From US6914065B2, “Imidazo[1,2-C]pyrimidine derivatives as ligands for gaba receptors” (Merck Sharp & Dohme Ltd., priority 2000, dated 2005)

In the case of Cc1cc2ncc(-c3cccc(-c4ccccc4C#N)c3)n2cn1 [Example 1, 3′-(7-Methylimidazo[1,2-c]pyrimidin-3-yl)biphenyl-2-carbonitrile], the melting point is reported as 119 °C.
